Literature values as cited in patent US20110301131A1, “Drug Delivery Implants and Processes for Their Preparation” (priority 2008, published 2011).

Settings: bupivacaine used in regional anaesthesia

Half-life: about 3 hours
SMILES: CCCCN1CCCCC1C(=O)Nc1c(C)cccc1C (stereo not shown) [bupivacaine]
